# Test results: patent US20120005765A1, “ANIMAL MODEL FOR PARKINSON'S DISEASE” (Saint Louis University, priority 2010, published 2012)
# Entries after “also recorded” stand apart in the source; their conditions may differ. Like-named read-outs stand apart in the source and are kept apart here.
# Columns and labels:
# ALDH1A1 = assay: Antisense inhibition of ALDH1A1 expression in rat substantia nigra, immunoblot; type: in vivo; conditions: 1 week or 2 weeks; for optical density of ALDH1A1 Western blot bands, ipsilateral vs contralateral: Unscan software
# Procedure: Antisense inhibition of ALDH1A1 expression in rats.
# The immunoreactive bands of the Western blot of FIG. 8 were analyzed by Unscan it soft ware (Silk Scientific) and their optical densities plotted in FIG. 9.
# rats = assay: Rotational asymmetry after apomorphine; type: in vivo, rat; conditions: apomorphine 0.4 mg/kg, n=7
# Procedure: (§1) Determination of DOPAL-induced Parkinson's disease-like behavior Injections of DOPAL or ALDH1A1 antisense oligo into rat SN. To determine if increased levels of DOPAL in SN produces a behavioral model of PD, 3 groups of rats were tested: unilateral SN injection of 4 μg DOPAL in 6 rats; unilateral SN injection of 0.56 μg antisense oligonucleotide (oligo) targeted to aldehyde dehydrogenase (ALDH1A1) mRNA, the DOPAL catabolic enzyme in 3 rats; 5 non-injected rats. After 5-7 weeks, rats were injected with apomorphine (0.4 mg/kg, subcutaneously) and rotational asymmetry determined in each group just prior to sacrifice. After the brains were fixed and sectioned, the SN, and forebrain were stained immunohistochemically for tyrosine hydroxylase immunoreactivity (THir). See Section 3.
# Determination of rotational asymmetry. Rats first were injected subcutaneously with the dopamine agonist apomorphine (0.4 mg/kg) dissolved in 0.1 ascorbate saline solution. After waiting 5 min in their home cage, they were placed in a hemispheric rotation bowl 40 cm wide and 20 cm deep. Rotational behavior was then determined for 30 min and the number of ipsilateral and contralateral turns quantified by observation.
# Rotational asymmetry was assessed to quantify the effect of unilateral depletions of striatal dopamine from disruptions of nigrostriatal circuitry. The rotational asymmetry behavior of rats (n=6) changed dramatically after injections with DOPAL (FIG. 5).
# Behavioral asymmetry is considered the standard behavioral test for rodent models of Parkinson's disease. The column on the right is a summary of all the behaviors recorded in the rotational asymmetry test for all the rats ([…]).
# DA SN neurons = assay: TH and NeuN immunohistochemistry after ALDH1A1 antisense injections into substantia nigra; type: in vivo, rat
# Procedure: as §1
# An antisense compound was used to decrease expression of ALDH1A1, which is responsible for breaking down DOPAL within the neuronal cell body and its effects on dopamine SN neurons and behavior were examined (FIGS. 6, 7). Three unilateral injections (total 800 nl; 700 pg/nl) of an antisense compound oligonucleotide (SEQ ID NO: 1), directed against the enzyme ALDH1A1, and comprising a phosphorothioate backbone, were made into the substantia nigra nucleus of the rat. The injections were placed in the pars compacta portion of the substantia nigra, the subnucleus where most of the dopaminergic neurons are found.
# α-synuclein = α-synuclein (Homo sapiens, UniProt P37840); assay: DOPAL-triggered α-synuclein aggregation in test tube, Western blot; type: biochemical; conditions: AS 2 μM, 37° C., up to 4 h, DOPAL 1.5-1,500 μM
# Procedure: Determination of DOPAL-triggered α-synuclein aggregation in vitro. Western blot of DOPAL-triggered AS aggregation in test tube experiments. DOPAL was dissolved in 1% benzyl alcohol, then diluted to a final concentration of 1.5-1,500 μM as described previously. AS (2 μM) was incubated at 37° C. in 20 μl of 100 mM tris-HCl buffer (pH 7.2) with or without DA, DOPAL, DOPAC, or homovanillic acid (HVA) for up to 4 h. The reaction was stopped by heating at 70° C. for 3 min in SDS buffer. The entire mixture was transferred to the appropriate gel (vide infra).
# SDS-PAGE and immunoblotting. Ten micrograms of protein (estimated by Bio Rad protein reagent) was resolved by electrophoresis on 4-12% bis-tris gels run with MES SDS buffer, and 3-8% tris-acetate gels using tris-acetate running buffer. For immunoblotting, the protein was transferred to PVDF blotting membranes with […] pore size, blocked with 5% milk protein in tris buffered saline (TBS) containing 0.1% Tween 20, and incubated for 1 h with a AS 202 monoclonal antibody (1:2,500 dilution). Blots were washed five times with 5% milk protein in TBS and probed with horseradish peroxidase-conjugated anti-mouse secondary antibody (1:2,500). Blots were washed five times with TBS containing. 0.5% Tween 20 before detection with Super Signal (Pierce).
# Western blot analysis was performed to analyze DOPAL-induced aggregation of α-synuclein (FIG. 1). […]
# PC12 cells = assay: DOPAL toxicity in vitro, viable PC12 cell count (trypan blue)
# Procedure: Determination of DOPAL toxicity in vitro Toxicity experiments were essentially as described previously. PC12 cultures were initially expanded in T-75 flasks with 20 ml Dulbecco's Modified Eagle's Medium supplemented with 4.5 g/l glucose, 4 mM L-glutamine, 5% fetal calf serum, 10% horse serum, 1000 units/l penicillin, and 100 mg/l streptomycin. Cells were transferred to six well culture plates with 2 ml media and grown to 1.5×10^5 cells/well, treated with 50 ng/ml nerve growth factor (NGF), and maintained in NGF-containing media for 7 d prior to experimentation. The medium was changed every 2-3 d. […] During the experiments, the medium was replaced once a day. Cells were detached with buffered saline containing EDT A, centrifuged at 200×g and resuspended in trypan blue for counting of viable cells. […] DOPAL and other compounds were added as described in the description of the figure and examples. Data was analyzed by ANOVA.
# DOPAL, as well as other physiologically metabolites and adducts, were added to PC12 cells in culture at concentrations that were physiologically relevant.
# ALDH = conditions: Lamensdorf et al. 2000; cited from earlier work
# [1] = Experiment 1, 66 μM, None 299 ± 19
compound,measurement,setting,value
"5″-AGCAGACGATCTCTCTCCATT-3″ (DNA, backbone and methylation of C not given here) [Antisense 2, 21-base antisense oligonucleotide complementary to residues 313 to 333 of rat ALDH1A1 mRNA]","ALDH1A1 protein, ipsilateral injected side vs contralateral side, Western blot",ALDH1A1,Loss of ALDH1A1
same,"ALDH1A1 protein, ipsilateral injected side vs contralateral side, Western blot",ALDH1A1; listed as antisense 2,loss of ALDH1A1 protein
same,"optical density of ALDH1A1 Western blot bands, ipsilateral vs contralateral",ALDH1A1,loss of ALDH1A1
same,rotational asymmetry after unilateral antisense injection into SN,rats,dramatic shifts in its rotational preference
5″-TGCAGGGGAAGACATTGCTGGT-3″ [Antisense 1],"ALDH1A1 protein, ipsilateral injected side vs contralateral side, Western blot",ALDH1A1,Loss of ALDH1A1
same,"ALDH1A1 protein, ipsilateral injected side vs contralateral side, Western blot",ALDH1A1; listed as antisense 1,loss of ALDH1A1 protein
same,"optical density of ALDH1A1 Western blot bands, ipsilateral vs contralateral",ALDH1A1,loss of ALDH1A1
same,rotational asymmetry after unilateral antisense injection into SN,rats,dramatic shifts in its rotational preference
same,"neurons immediately adjacent to the injection site, Neun immunostaining",DA SN neurons; case R2504,have died
same,intensity of TH staining in the injected SN,"DA SN neurons; three unilateral injections, total 800 nl, 700 pg/nl",slightly less
same,"dopaminergic projections to rostral brain / ventral striatum, TH immunostaining","DA SN neurons; three unilateral injections, total 800 nl, 700 pg/nl, 5 or 7 weeks, listed as SEQ ID NO: 1",dramatically reduced; also recorded: absent/decreased
"NCCc1ccc(O)c(O)c1 [DA, dopamine]",aggregation of α-synuclein oligomers in vitro,α-synuclein,not
same,toxic in vitro at physiological levels,PC12 cells,not
same,PC 12 cells/well × 103,"PC12 cells; rat, 66 μM",329 ± 21 cells/well × 103
"O=C(O)Cc1ccc(O)c(O)c1 [DOPAC, 3,4-dihydroxyphenylacetic acid]",toxic in vitro at physiological levels,PC12 cells,not
same,PC 12 cells/well × 103,"PC12 cells; rat, 66 μM",334 ± 10 cells/well × 103
"COc1cc(CC(=O)O)ccc1O [HVA, homovanillic acid]",PC 12 cells/well × 103,PC12 cells; [1],322 ± 20 cells/well × 103
same,toxic in vitro at physiological levels,PC12 cells; PC12 cells in culture,not
"C=C(C)[C@H]1Cc2c(ccc3c2O[C@@H]2COc4cc(OC)c(OC)cc4[C@@H]2C3=O)O1 [Rotenone, rotenone]",PC 12 cells/well × 103,"PC12 cells; Experiment 2, 10 μM, None 143 ± 12",127 ± 9 cells/well × 103
Oc1ccc(CC2NCCc3cc(O)c(O)cc32)cc1O (stereo not shown) [Tetrahydropapaveroline],PC 12 cells/well × 103,PC12 cells; [1],346 ± 15 cells/well × 103
same,toxic in vitro at physiological levels,PC12 cells; PC12 cells in culture,not
O=c1c(-c2ccc(O)cc2)coc2cc(O)ccc12 [daidzein],inhibiting ALDH in PC-12 cells,ALDH,effective
